Results taken from patent publication US20150353928A1, “Genes Contributing to Survival of Cancer Cells” (Georgetown University, priority 2011, published 2015).

What was measured:
[1] = system: LCC1 cells; assay: Bortezomib concentration response, Cell Titer Blue viability; format: cell-based; settings: 2.5 nM-2.5 μM
Protocol: (§1) LCC1, LCC9 and MCF7 cells were seeded at density so that the untreated condition was at 80% confluence on day 7 in the appropriate medium. Cells were incubated at 37° C. and 5% CO2 for […]. Twenty-four hours later, cells were treated with Bortezomib with final well concentrations ranging from 2.5 nM-2.5 μM. On the seventh day, 20 μL of 1:1 mixture of Cell Titer Blue (CTB) from Promega and Hank's Buffered Salt Solution (HBSS) was added to each well and incubated for another 4 hours before reading out the results using the EnVision Multilabel Plate Reader from PerkinElmer. Viability was calculated as a percentage of the untreated cells.

[2] = system: LCC9 cells; assay: as above; format: cell-based; settings: 2.5 nM-2.5 μM
Protocol: as §1

CC(C)C[C@H](NC(=O)[C@H](Cc1ccccc1)NC(=O)c1cnccn1)B(O)O [Bortezomib]
sensitivity to bortezomib compared to MCF7 (concentration response curves) [1]: more sensitive
sensitivity to bortezomib compared to MCF7 (concentration response curves) [2]: more sensitive
